Legend:
Estrogen ER (ns) (h) = target: T1, Estrogen ER (ns) (h) (Homo sapiens, UniProt P03372); test: Binding ER (ns) (h) (ag); conditions: read-out: % Inhibition of Control Specific Binding @ 10 μM
T1 construct: MCF-7 cells (cytosol); endogenous in cells; host or cells: MCF-7 cells (cytosol)
Description: (§1) Radioligand binding assay methods utilized to measure the activity of compounds of the invention will be familiar to those skilled in the art. In each assay case, the assay components such as, for example, the cell-type, ligand, reference compound and the like, will be familiar to practitioners of such an assay.
(§2) Analysis and Expression of Results: Compounds of the invention were tested in the biochemical assays and percent inhibition of specific binding was determined. The specific ligand binding to the receptors is defined as the difference between the total binding and the nonspecific binding determined in the presence of an excess of unlabelled ligand. The results are expressed as a percent inhibition of control specific binding (100−((measured specific binding/control specific binding)×100)) obtained in the presence of test compounds.

[1] = system: Benzodiazepine BZD (central); test: Binding BZD (central) (ag); set-up: species or system rat
Description: as §1, §2

[2] = target: T2, N neuronal α-BGTX-insensitive (α4β2) (Rattus norvegicus, UniProt P09483+P12390); test: Binding N neuronal α-BGTX-insensitive (α4β2) (ag); conditions: read-out: % Inhibition of Control Specific Binding @ 10 μM
T2 construct: rat cerebral cortex; from tissue; host or cells: rat cerebral cortex
Description: as §1, §2

[3] = target: T3, Corticotropin Releasing Factor CRF1 (h) (Homo sapiens, UniProt P34998); test: Binding CRF1 (h) (ag); conditions: read-out: % Inhibition of Control Specific Binding @ 10 μM
T3 construct: expressed in transfected cells; host or cells: CHO cells
T3 sequence (P34998 24-415): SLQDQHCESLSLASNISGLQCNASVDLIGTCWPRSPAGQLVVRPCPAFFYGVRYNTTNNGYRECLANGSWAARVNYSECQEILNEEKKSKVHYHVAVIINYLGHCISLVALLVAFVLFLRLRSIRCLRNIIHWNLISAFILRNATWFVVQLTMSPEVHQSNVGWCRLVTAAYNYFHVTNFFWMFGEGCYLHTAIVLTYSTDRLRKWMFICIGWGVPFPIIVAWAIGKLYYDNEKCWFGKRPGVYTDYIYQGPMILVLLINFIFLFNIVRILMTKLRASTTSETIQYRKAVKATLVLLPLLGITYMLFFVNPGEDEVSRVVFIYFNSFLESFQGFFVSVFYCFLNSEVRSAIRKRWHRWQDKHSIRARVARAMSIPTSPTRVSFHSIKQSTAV
Description: as §1, §2

Angiotensin AT2 (h) = target: T4, Angiotensin AT2 (h) (Homo sapiens, UniProt P50052); test: Binding AT2 (h); conditions: AT2 (h) (aa), read-out: % Inhibition of Control Specific Binding @ 10 μM
T4 construct: expressed in transfected cells; host or cells: CHO cells
T4 sequence (P50052 1-363): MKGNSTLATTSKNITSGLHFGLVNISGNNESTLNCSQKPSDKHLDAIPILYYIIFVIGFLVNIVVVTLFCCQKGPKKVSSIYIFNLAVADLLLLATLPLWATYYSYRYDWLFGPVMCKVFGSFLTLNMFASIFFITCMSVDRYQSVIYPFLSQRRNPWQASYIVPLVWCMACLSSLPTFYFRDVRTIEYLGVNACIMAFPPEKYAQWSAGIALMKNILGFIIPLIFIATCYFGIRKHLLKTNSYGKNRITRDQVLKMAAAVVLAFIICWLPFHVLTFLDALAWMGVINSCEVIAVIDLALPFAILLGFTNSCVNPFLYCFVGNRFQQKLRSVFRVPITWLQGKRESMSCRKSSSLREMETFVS
Description: as §1, §2

Glucocorticoid GR (h) = target: T5, Glucocorticoid GR (h) (Homo sapiens, UniProt P04150); test: Binding GR (h) (ag); conditions: read-out: % Inhibition of Control Specific Binding @ 10 μM
T5 construct: IM-9 cells (cytosol); endogenous in cells; host or cells: IM-9 cells (cytosol)
T5 sequence (P04150 1-777): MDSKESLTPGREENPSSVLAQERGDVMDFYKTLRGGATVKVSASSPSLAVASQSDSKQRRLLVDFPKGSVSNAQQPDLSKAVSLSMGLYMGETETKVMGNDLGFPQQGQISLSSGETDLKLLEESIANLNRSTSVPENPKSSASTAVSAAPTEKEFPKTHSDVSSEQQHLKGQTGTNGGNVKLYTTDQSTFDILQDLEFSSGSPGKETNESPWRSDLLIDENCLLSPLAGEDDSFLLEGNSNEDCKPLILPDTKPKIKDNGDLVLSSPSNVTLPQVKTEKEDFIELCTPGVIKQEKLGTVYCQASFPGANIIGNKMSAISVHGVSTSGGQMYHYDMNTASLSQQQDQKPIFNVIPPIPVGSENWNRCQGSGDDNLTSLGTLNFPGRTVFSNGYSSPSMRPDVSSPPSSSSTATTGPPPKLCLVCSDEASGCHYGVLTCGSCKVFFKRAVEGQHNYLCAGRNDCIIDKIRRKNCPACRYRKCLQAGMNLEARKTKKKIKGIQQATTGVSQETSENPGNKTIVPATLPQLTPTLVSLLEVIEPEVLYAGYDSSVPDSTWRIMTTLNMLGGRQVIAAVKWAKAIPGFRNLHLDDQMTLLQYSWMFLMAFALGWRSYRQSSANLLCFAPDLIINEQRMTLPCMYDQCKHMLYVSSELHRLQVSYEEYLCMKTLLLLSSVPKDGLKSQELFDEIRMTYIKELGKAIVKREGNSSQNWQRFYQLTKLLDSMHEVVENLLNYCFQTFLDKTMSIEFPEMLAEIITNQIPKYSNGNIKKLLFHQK
Description: as §1, §2

adenylyl cyclase (basal) = test: Enzyme assay adenylyl cyclase (basal); type: biochemical, rat
Source text: (§3) The enzyme assays provided below will be familiar to those skilled in the art.
(§4) Analysis and Expression of Results: The results are expressed as a percent of control specific activity ((measured specific activity/control specific activity)×100) obtained in the presence of the test compounds.

tyrosine hydroxylase = target: T6, tyrosine hydroxylase (Rattus norvegicus, UniProt P04177); test: Enzyme assay tyrosine hydroxylase; type: biochemical; conditions: read-out: % Inhibition of Control Values @ 10 μM
T6 construct: rat striatum; from tissue; host or cells: rat striatum
Source text: as §3, §4

[4] = system: Ca^2+ channel (L, diltiazem site) (benzothiazepines); test: Binding Ca2+ channel (L, diltiazem site) (aa); set-up: species or system rat
Description: as §1, §2

GnRH (LH-RH) = target: T7, GnRH (LH-RH) (Rattus norvegicus, UniProt P30969); test: Binding GnRH (LH-RH) (ag); conditions: read-out: % Inhibition of Control Specific Binding @ 10 μM
T7 construct: rat pituitary gland; from tissue; host or cells: rat pituitary gland
T7 sequence (P30969 1-327): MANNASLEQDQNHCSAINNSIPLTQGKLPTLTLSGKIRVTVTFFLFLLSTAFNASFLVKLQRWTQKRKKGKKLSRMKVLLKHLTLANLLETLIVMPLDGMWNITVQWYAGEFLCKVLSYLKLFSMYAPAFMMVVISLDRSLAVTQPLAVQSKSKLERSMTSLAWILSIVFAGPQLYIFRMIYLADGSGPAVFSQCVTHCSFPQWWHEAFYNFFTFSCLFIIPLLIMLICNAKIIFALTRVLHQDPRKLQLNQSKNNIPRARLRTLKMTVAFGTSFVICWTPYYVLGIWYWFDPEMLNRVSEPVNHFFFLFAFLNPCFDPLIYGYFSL
Description: as §1, §2

T6 sequence (P04177 whole entry): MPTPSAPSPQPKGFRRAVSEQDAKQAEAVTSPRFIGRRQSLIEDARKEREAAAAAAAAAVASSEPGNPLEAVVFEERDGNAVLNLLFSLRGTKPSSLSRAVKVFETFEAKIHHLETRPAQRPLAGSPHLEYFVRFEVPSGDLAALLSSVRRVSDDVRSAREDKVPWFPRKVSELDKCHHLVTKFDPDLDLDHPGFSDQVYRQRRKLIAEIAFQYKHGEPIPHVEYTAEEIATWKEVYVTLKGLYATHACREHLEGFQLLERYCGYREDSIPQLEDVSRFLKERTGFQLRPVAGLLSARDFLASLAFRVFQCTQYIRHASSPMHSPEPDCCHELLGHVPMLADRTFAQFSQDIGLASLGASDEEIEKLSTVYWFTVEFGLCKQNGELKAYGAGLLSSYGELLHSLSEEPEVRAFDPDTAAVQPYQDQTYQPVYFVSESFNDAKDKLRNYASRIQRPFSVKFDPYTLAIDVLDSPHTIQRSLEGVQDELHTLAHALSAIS
T2 sequence (P09483 31-630): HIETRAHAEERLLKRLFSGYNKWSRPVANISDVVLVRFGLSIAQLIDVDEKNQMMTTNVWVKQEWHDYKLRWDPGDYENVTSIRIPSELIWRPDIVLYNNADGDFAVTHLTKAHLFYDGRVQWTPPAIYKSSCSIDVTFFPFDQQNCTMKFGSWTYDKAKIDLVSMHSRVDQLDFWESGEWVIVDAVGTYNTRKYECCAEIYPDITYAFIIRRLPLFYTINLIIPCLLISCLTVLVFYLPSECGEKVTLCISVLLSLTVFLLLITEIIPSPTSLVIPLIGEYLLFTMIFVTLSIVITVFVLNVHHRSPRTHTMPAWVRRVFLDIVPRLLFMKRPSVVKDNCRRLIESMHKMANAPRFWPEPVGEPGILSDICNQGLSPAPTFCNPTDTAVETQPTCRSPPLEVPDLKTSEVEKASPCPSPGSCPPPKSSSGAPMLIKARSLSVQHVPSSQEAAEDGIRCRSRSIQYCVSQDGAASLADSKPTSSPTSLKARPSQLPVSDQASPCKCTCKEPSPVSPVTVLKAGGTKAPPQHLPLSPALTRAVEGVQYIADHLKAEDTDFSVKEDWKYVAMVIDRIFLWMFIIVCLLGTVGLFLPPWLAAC
T2 sequence (P12390 25-500): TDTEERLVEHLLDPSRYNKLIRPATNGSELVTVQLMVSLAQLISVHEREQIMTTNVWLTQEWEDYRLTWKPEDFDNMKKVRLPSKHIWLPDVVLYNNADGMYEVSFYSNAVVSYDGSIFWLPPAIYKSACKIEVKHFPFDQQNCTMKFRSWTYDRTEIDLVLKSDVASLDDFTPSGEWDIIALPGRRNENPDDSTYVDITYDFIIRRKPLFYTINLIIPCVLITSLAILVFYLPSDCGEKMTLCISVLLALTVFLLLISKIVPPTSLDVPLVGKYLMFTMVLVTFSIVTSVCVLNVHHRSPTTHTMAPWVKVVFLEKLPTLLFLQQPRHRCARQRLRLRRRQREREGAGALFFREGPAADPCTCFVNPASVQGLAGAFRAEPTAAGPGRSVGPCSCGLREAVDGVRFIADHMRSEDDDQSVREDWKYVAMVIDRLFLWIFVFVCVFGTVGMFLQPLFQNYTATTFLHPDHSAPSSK
T1 sequence (P03372 whole entry): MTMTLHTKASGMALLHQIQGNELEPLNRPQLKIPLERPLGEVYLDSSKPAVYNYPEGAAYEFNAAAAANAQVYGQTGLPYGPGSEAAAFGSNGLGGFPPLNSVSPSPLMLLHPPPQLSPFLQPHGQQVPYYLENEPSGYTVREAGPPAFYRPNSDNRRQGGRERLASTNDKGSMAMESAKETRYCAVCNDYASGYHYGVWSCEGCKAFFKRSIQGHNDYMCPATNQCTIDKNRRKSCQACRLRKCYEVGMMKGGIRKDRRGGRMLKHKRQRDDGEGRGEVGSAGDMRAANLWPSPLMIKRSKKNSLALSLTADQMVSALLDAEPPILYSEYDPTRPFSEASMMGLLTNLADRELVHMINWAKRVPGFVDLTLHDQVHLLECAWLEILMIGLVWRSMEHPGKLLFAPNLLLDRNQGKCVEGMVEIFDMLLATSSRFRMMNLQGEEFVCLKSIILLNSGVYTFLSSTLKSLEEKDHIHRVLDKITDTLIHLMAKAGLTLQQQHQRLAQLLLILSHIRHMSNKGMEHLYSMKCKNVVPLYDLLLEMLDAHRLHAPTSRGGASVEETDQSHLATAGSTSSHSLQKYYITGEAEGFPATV

Row | SMILES | inhibition at 10 µM (Estrogen ER (ns) (h)) | % Inhibition of Control Specific Binding @ 10 μM [1] | inhibition at 10 µM [2] | inhibition at 10 µM [3] | inhibition at 10 µM (Angiotensin AT2 (h)) | inhibition at 10 µM (Glucocorticoid GR (h)) | % Stimulation Relative to Control @ 10 μM (adenylyl cyclase (basal)) | inhibition at 10 µM (tyrosine hydroxylase) | % Inhibition of Control Specific Binding @ 10 μM [4] | inhibition at 10 µM (GnRH (LH-RH))
1 | CC1(C)C(=O)N(c2ccc(C#N)c(C(F)(F)F)c2)C(=S)N1c1ccc(C(=O)O)c(F)c1 [(MI), 4-(3-(4-cyano-3-(trifluoromethyl)phenyl)-5,5-dimethyl-4-oxo-2-thioxoimidazolidin-1-yl)-2-fluorobenzoic acid] | -8% | −35% | 0% | -4% | -1% | 5% | 0% | -4% | 2% | -21%
2 | CC1(C)C(=O)N(c2ccc(C#N)c(C(F)(F)F)c2)C(=S)N1c1ccc(C(N)=O)c(F)c1 [(MII), 4-(3-(4-Cyano-3-(trifluoromethyl)phenyl)-5,5-dimethyl-4-oxo-2-thioxoimidazolidin-1-yl)-2-fluorobenzamide] | 3% | −37% | -3% | 1% | -6% | 30% | 3% | 2% | 22% | -51%
3 | CC1(C)C(=O)N(c2ccc(C#N)c(C(F)(F)F)c2)C(=O)N1c1ccc(C(N)=O)c(F)c1 [(MIII), 4-(3-(4-cyano-3-(trifluoromethyl)phenyl)-5,5-dimethyl-2,4-dioxoimidazolidin-1-yl)-2-fluorobenzamide] | -2% | −20% | -11% | -9% | -2% | 0% | 4% | -2% | −2% | 5%
4 | CNC(=O)c1ccc(N2C(=O)N(c3ccc(C#N)c(C(F)(F)F)c3)C(=O)C2(C)C)cc1F [(MIV), 4-(3-(4-cyano-3-(trifluoromethyl)phenyl)-5,5-dimethyl-2,4-dioxoimidazolidin-1-yl)-2-fluoro-N-methylbenzamide] | -11% | −29% | -3% | -23% | 1% | 4% | 11% | -2% | 1% | 0%

Reference: patent US8524755B2 (priority 2009, dated 2013)
